Test results reported in patent US10286038B2, “Lysosome membrane protein 2 (LIMP-2) based peptides and related uses” (Northwestern University, priority 2016, dated 2019).

Experiments:
[1] = target: T1, recombinant GC (Cerezyme) (Homo sapiens, UniProt P04062, R534H); experiment: peptide pulldown of recombinant GC; type: binding; details: biotinylated peptide, tenfold molar amount, neutral pH, streptavidin beads
T1 construct: purchased Genzyme Therapeutics, Boston, USA
T1 sequence (P04062 40-536 R534H): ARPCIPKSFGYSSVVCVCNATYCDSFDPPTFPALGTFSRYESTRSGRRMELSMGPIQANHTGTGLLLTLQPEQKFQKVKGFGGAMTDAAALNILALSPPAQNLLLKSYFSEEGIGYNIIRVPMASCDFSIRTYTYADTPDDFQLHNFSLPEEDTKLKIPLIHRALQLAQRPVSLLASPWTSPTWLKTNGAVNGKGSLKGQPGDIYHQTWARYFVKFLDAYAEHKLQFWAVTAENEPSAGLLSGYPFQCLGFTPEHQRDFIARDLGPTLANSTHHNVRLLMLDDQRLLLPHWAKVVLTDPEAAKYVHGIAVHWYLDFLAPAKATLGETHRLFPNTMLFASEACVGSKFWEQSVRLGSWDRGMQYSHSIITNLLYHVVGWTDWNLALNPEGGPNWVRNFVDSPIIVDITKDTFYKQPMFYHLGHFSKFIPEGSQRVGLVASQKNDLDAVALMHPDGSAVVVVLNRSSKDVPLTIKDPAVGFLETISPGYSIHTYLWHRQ
Experimental: Expression plasmids of LIMP-2 and human GC constructs were generated as described previously (1). For Western blotting nitrocellulose or PVDF membranes were used. EndoH/PNGaseF digests were performed according to manufacturer's instructions (New England Biolabs, Ipswich, USA). For co-immunoprecipitation experiments magnetic agarose G beads (Thermo Fisher Scientific, Waltham, USA) were utilized. Immunofluorescence studies were performed in cells as previously described (1, 3). Cellular co-localization of two proteins was determined by the Pearson's Index (35). Enzyme activity assays of cell lysates or recombinant protein were measured at acid pH using absorbent and fluorescent artificial substrates. For peptide studies, peptides were N-terminally tagged with biotin. If not stated otherwise, recombinant enzyme was incubated with a tenfold higher molarity of peptides. Conditions for pulldown experiments were kept at neutral pH. Protein modelling, molecular analyses, graphics and animations were performed with the UCSF Chimera package.
All peptides were purchased from jpt Peptide Technologies (Berlin, GER). […] The concentration of the peptides as well as the recombinant proteins was determined spectroscopically (Nanodrop 2000c; Thermo Fisher Scientific, Waltham, USA). […]

[2] = test system: endogenous GC in Cos 7 cells; details: biotinylated peptide, neutral pH
Experimental: For pulldown of endogenous and overexpressed GC from N2a cell lysates 20 nmol of LIMP-2-derived peptide (Helix 5 and 3×D) was incubated with 50 μl cell lysate at 4° C. overnight. The cells were harvested in EBC-buffer (Table 3). After blocking and equilibration of the streptavidin beads (see above) the cell lysate/peptide mixtures were added to the beads for 30 min. at room temperature. The supernatant was removed. After extensive washing of the beads with NaPhosphate buffer, the bound peptides and proteins were released from the beads by incubation with Laemmli buffer (see above). After centrifugation for 2 min. at 17,000×g the supernatant was removed (BOUND fraction) and subjected to SDS-Page and Western-blotting. An antibody against human GC (α-hGC, for details see Table 4) was used for detection.

[3] = target: bovine serum albumin (BSA) (Bos taurus, UniProt P02769); experiment: peptide pulldown of albumin (BSA); type: binding; details: neutral pH
Experimental: FIG. 6: Characterization of a helical LIMP-2-derived peptide. […] B) In vitro peptide pulldown assay: helix 5 peptides were incubated with recombinant LAMAN and bovine serum albumin (BSA). INPUT and BOUND fractions were loaded onto SDS-PAGE and proteins visualized by coomassie staining (CBB). C) Densitometry of LAMAN and BSA protein bound to peptide, normalized to protein fraction bound to beads only (buffer; n=2-3). D) and E) Activity assay of recombinant (D) GC and (E) LAMAN incubated with different excess molarities (1×-10×) of helix 5 peptide (n=β-5) and LIMP-2 ectodomain (n=4). GC activities were normalized and statistical analyses compared to 0 input of BSA/helix 5 peptide. F) Peptide-pulldown of GC constructs overexpressed in N2a cells with subsequent Western blot analysis (α-hGC) utilizing helix 5 and the 3×D control peptide as a negative binding control. G) Densitometry of GC protein bound to peptides; each construct is normalized to buffer only. H) Live-cell lysosomal GC activity of H4 cells after uptake of helix 5 and 3×D TAT peptides. GC activity was measures every 30 minutes up to 3.5 hours. Cells were treated with DMSO or the “lysosomal inhibitor” bafilomycinA1. […] Lysosomal activity is calculated by subtracting the AUC of DMSO with the AUC of bafilomycinA1 treated samples (n=4). […] GC activity was measured from 16-74 hours and is shown in mU/mg (n=3). […]

Sequence of bovine serum albumin (BSA) (P02769 25-607): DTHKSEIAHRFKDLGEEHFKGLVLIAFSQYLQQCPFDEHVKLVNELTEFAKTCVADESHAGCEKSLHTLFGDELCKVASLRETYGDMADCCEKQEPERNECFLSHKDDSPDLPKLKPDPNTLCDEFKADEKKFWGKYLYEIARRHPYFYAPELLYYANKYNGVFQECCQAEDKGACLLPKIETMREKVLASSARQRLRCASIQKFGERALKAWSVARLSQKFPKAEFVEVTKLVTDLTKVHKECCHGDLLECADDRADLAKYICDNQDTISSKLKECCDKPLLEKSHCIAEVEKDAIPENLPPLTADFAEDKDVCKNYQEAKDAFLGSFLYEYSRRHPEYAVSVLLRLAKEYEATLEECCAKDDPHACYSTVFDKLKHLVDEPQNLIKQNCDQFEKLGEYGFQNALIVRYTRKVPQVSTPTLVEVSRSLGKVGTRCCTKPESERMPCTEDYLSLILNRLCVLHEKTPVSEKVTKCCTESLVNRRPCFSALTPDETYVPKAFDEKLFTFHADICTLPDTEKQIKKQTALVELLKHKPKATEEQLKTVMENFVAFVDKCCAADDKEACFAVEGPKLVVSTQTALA

Biotin-Ttds-LREIIEAMLKAYQQKLFVTHTVDE [helix 5 peptide]
co-precipitation of recombinant GC [1]: specifically co-precipitated | co-precipitation of endogenous GC from cellular lysates [2]: specifically co-precipitated | interaction with albumin (BSA) [3]: no interaction
